Reference: patent US11147812B2, “Tyrosine analogues derivatives as Rho-kinase inhibitors” (Chiesi Farmaceutici S.p.A., priority 2017, dated 2021)

What was measured:
Rho kinase 1 (ROCK1) = Rho kinase 1 (ROCK1) (Homo sapiens, UniProt Q13464); assay: In vitro Rho kinase inhibitory activity assay (ADP-Glo), ROCK1; assay type: biochemical; conditions: 10 μM ATP, 25° C., Ki by Cheng-Prusoff
Protocol: (§1) The effectiveness of compounds of the present invention to inhibit Rho kinase activity can be determined in a 10 μl assay containing 40 mM Tris pH7.5, 20 mM MgCl2 0.1 mg/ml BSA, 50 μM DTT and 2.5 μM peptide substrate (Myelin Basic Protein) using an ADP-Glo kit (Promega). Compounds were dissolved in DMSO such that the final concentration of DMSO was 1% in the assay. All reactions/incubations are performed at 25° C. Compound (2 ul) and either Rho kinase 1 or 2 (4 μl) were mixed and incubated for 30 mins. Reactions were initiated by addition of ATP (4 μl) such that the final concentration of ATP in the assay was 10 μM. After a 1 hour incubation 10 μl of ADP-Glo Reagent was added and after a further 45 minute incubation 20 ul of Kinase Detection Buffer was added and the mixture incubated for a further 30 minutes. The luminescent signal was measured on a luminometer. […] Compounds were tested in dose-response format and the inhibition of kinase activity was calculated at each concentration of compound. To determine the IC50 (concentration of compound required to inhibit 50% of the enzyme activity) data were fit to a plot of % inhibition vs Log10 compound concentration using a sigmoidal fit with a variable slope and fixing the maximum to 100% and the minimum to 0%. To determine the Ki values the Cheng-Prusoff equation was utilized (Ki=IC50/(1+[S]/Km)

Rho kinase 2 (ROCK2) = Rho kinase 2 (ROCK2) (Homo sapiens, UniProt O75116); assay: In vitro Rho kinase inhibitory activity assay (ADP-Glo), ROCK2; assay type: biochemical; conditions: 10 μM ATP, 25° C., Ki by Cheng-Prusoff
Chain of Rho kinase 2 (ROCK2) (O75116 whole entry): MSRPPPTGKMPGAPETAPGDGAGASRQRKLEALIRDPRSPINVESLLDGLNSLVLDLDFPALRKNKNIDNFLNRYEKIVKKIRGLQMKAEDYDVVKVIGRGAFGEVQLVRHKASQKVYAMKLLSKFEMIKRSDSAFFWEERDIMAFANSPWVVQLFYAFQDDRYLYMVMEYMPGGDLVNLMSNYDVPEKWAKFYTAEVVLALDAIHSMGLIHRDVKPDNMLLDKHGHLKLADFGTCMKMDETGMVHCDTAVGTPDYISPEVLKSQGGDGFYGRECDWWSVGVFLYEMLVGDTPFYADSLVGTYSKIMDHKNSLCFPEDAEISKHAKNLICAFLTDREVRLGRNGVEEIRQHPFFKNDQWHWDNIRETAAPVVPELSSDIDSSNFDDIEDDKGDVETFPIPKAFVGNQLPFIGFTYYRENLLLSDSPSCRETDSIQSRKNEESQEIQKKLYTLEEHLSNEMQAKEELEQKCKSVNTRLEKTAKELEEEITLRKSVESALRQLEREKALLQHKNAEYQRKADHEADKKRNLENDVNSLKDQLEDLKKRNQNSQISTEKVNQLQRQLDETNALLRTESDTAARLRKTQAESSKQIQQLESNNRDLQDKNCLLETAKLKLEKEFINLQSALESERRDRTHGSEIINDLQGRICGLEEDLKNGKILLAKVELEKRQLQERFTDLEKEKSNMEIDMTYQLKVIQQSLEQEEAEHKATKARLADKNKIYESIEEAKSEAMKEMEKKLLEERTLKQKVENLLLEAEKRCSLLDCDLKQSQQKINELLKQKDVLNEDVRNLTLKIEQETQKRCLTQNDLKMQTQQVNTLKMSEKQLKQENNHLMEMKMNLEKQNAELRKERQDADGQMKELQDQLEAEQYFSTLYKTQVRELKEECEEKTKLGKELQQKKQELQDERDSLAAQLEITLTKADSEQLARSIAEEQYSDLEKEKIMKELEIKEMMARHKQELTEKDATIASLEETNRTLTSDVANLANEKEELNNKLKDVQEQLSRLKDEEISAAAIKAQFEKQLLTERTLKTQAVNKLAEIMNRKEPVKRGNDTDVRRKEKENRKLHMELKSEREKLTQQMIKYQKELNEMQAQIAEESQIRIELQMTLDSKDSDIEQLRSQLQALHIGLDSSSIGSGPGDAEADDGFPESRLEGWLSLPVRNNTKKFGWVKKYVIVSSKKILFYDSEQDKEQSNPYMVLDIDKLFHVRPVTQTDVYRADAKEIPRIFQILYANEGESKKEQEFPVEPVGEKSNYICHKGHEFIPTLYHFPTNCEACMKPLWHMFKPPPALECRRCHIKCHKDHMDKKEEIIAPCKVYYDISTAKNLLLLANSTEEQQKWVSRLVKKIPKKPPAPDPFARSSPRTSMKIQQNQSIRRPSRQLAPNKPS
Protocol: as §1

Chain of Rho kinase 1 (ROCK1) (Q13464 whole entry): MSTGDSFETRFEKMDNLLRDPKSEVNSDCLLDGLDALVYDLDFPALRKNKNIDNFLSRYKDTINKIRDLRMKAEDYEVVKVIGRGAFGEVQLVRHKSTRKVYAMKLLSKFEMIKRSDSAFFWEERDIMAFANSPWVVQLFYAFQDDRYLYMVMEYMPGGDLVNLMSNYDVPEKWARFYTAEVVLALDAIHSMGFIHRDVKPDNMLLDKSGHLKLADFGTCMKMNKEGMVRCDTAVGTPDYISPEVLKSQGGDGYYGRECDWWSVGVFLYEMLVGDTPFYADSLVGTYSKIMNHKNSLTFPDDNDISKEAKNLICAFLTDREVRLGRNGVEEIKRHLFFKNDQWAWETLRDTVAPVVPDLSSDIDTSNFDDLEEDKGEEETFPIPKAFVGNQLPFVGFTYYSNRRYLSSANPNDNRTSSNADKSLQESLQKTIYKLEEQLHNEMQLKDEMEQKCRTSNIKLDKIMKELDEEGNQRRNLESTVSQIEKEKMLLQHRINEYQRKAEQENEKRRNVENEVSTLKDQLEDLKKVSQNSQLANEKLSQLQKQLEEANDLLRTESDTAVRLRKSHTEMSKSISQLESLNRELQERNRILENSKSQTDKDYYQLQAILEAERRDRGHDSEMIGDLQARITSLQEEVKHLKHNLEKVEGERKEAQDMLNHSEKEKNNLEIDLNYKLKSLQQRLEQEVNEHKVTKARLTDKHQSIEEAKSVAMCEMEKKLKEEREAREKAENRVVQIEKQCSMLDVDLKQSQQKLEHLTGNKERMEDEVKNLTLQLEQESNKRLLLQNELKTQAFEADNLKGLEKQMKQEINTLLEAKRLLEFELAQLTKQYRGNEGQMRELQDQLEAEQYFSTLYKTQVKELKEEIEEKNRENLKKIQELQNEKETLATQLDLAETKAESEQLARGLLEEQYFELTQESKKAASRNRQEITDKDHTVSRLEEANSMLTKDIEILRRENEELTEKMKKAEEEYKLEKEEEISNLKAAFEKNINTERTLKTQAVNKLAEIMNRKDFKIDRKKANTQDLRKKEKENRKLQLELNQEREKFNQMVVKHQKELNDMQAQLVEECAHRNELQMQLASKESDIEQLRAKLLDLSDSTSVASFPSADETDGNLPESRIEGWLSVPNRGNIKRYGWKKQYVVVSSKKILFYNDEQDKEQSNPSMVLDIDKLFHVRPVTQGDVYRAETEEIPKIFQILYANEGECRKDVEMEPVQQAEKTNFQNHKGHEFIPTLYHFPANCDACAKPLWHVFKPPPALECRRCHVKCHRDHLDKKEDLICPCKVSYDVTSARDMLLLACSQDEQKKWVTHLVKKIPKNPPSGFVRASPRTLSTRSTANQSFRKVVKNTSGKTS

Ki (Rho kinase 1 (ROCK1)) | Ki (Rho kinase 2 (ROCK2)) | SMILES
< 3 nM | < 3 nM | Cc1c[nH]c2nccc(Oc3ccc(CC(CN)C(=O)N4C[C@@H]5C[C@H]4CN5C)cc3F)c12 (stereo partly drawn) [Example 4, 3-amino-2-(3-fluoro-4-((3-methyl-1H-pyrrolo[2,3-b]pyridin-4-yl)oxy)benzyl)-1-((1S,4S)-5-methyl-2,5-diazabicyclo[2.2.1]heptan-2-yl)propan-1-one]
< 3 nM | < 3 nM | Cc1c[nH]c2nccc(Oc3ccc(CC(CN)C(=O)N4CCN(Cc5ccccn5)CC4)cc3F)c12 (stereo not drawn) [Example 5, 3-amino-2-(3-fluoro-4-((3-methyl-1H-pyrrolo[2,3-b]pyridin-4-yl)oxy)benzyl)-1-(4-(pyridin-2-ylmethyl)piperazin-1-yl)propan-1-one]
> 30 nM | > 30 nM | Cc1cc2c(Oc3ccc(CC(CN)C(=O)N4CCN(Cc5ccccc5)CC4)cc3)ccnc2[nH]1 (stereo not drawn) [Example 6, 3-amino-1-(4-benzylpiperazin-1-yl)-2-(4-((2-methyl-1H-pyrrolo[2,3-b]pyridin-4-yl)oxy)benzyl)propan-1-one]
< 3 nM | < 3 nM | Cc1c[nH]c2nccc(Oc3ccc(C(N)CC(=O)N4CCN(Cc5ccccc5)CC4)cc3)c12 (stereo not drawn) [Example 7, 3-amino-1-(4-benzylpiperazin-1-yl)-3-(4-((3-methyl-1H-pyrrolo[2,3-b]pyridin-4-yl)oxy)phenyl)propan-1-one]
> 30 nM | > 30 nM | NC(C(=O)NC1CCCCC1)c1ccc(Oc2ccnc3[nH]ccc23)cc1 (stereo not drawn) [Example 8, 2-(4-((1H-pyrrolo[2,3-b]pyridin-4-yl)oxy)phenyl)-2-amino-N-cyclohexylacetamide]
> 30 nM | > 30 nM | NC(C(=O)Nc1ccccc1)c1ccc(Oc2ccnc3[nH]ccc23)cc1 (stereo not drawn) [Example 9, 2-(4-((1H-pyrrolo[2,3-b]pyridin-4-yl)oxy)phenyl)-2-amino-N-phenylacetamide]
> 30 nM | > 30 nM | NC(C(=O)Nc1ccc(C(F)(F)F)cc1)c1ccc(Oc2ccnc3[nH]ccc23)cc1 (stereo not drawn) [Example 10, 2-(4-((1H-pyrrolo[2,3-b]pyridin-4-yl)oxy)phenyl)-2-amino-N-(4-(trifluoromethyl)phenyl)acetamide]
> 30 nM | > 30 nM | CN1CCN(C(=O)C(N)c2ccc(Oc3ccnc4[nH]ccc34)cc2)CC1 (stereo not drawn) [Example 11, 2-(4-((1H-pyrrolo[2,3-b]pyridin-4-yl)oxy)phenyl)-2-amino-1-(4-methylpiperazin-1-yl)ethanone]
> 30 nM | > 30 nM | CN(C)C(=O)C(N)c1ccc(Oc2ccnc3[nH]ccc23)cc1 (stereo not drawn) [Example 12, 2-(4-((1H-pyrrolo[2,3-b]pyridin-4-yl)oxy)phenyl)-2-amino-N,N-dimethylacetamide]
> 30 nM | > 30 nM | NC(C(=O)NC1CCOCC1)c1ccc(Oc2ccnc3[nH]ccc23)cc1 (stereo not drawn) [Example 13, 2-(4-((1H-pyrrolo[2,3-b]pyridin-4-yl)oxy)phenyl)-2-amino-N-(tetrahydro-2H-pyran-4-yl)acetamide]
> 30 nM | > 30 nM | CN1CCC(NC(=O)C(N)c2ccc(Oc3ccnc4[nH]ccc34)cc2)CC1 (stereo not drawn) [Example 14, 2-(4-((1H-pyrrolo[2,3-b]pyridin-4-yl)oxy)phenyl)-2-amino-N-(1-methylpiperidin-4-yl)acetamide]
< 3 nM | < 3 nM | Cc1c[nH]c2nccc(Oc3ccc(C(CN)CC(=O)N4CCN(Cc5ccccc5)CC4)cc3)c12 (stereo not drawn) [Example 15, 4-amino-1-(4-benzylpiperazin-1-yl)-3-(4-((3-methyl-1H-pyrrolo[2,3-b]pyridin-4-yl)oxy)phenyl)butan-1-one]
3 to 30 nM | 3 to 30 nM | Cc1c[nH]c2nccc(Oc3ccc(C(CN)CC(=O)N4CCN(C5CC5)CC4)cc3)c12 (stereo not drawn) [Example 16, 4-amino-1-(4-cyclopropylpiperazin-1-yl)-3-(4-((3-methyl-1H-pyrrolo[2,3-b]pyridin-4-yl)oxy)phenyl)butan-1-one]
< 3 nM | < 3 nM | Cc1c[nH]c2nccc(Oc3ccc(CC(CN)C(=O)NC4CCCCC4)cc3F)c12 (stereo not drawn) [Example 28, 3-amino-N-cyclohexyl-2-(3-fluoro-4-((3-methyl-1H-pyrrolo[2,3-b]pyridin-4-yl)oxy)benzyl)propanamide]
< 3 nM | < 3 nM | Cc1c[nH]c2nccc(Oc3ccc(CC(CN)C(=O)N4CCN(Cc5ccccc5)CC4)cc3F)c12 (stereo not drawn) [Example 29, 3-amino-1-(4-benzylpiperazin-1-yl)-2-(3-fluoro-4-((3-methyl-1H-pyrrolo[2,3-b]pyridin-4-yl)oxy)benzyl)propan-1-one]
< 3 nM | < 3 nM | Cc1c[nH]c2nccc(Oc3ccc(CC(CN)C(=O)N4CCN(Cc5ccccc5)CC4)cc3)c12 (stereo not drawn) [Example 30, 3-amino-1-(4-benzylpiperazin-1-yl)-2-(4-((3-methyl-1H-pyrrolo[2,3-b]pyridin-4-yl)oxy)benzyl)propan-1-one]
< 3 nM | < 3 nM | Cc1c[nH]c2nccc(Oc3ccc(CC(CN)C(=O)NC4CCCCC4)cc3)c12 (stereo not drawn) [Example 31, 3-amino-N-cyclohexyl-2-(4-((3-methyl-1H-pyrrolo[2,3-b]pyridin-4-yl)oxy)benzyl)propanamide]
< 3 nM | < 3 nM | NCC(Cc1ccc(Oc2ccnc3[nH]ccc23)cc1)C(=O)N1CCN(Cc2ccccc2)CC1 (stereo not drawn) [Example 32, 2-(4-((1H-pyrrolo[2,3-b]pyridin-4-yl)oxy)benzyl)-3-amino-1-(4-benzylpiperazin-1-yl)propan-1-one]
3 to 30 nM | 3 to 30 nM | NCC(Cc1ccc(Oc2ccnc3[nH]ccc23)cc1)C(=O)NC1CCCCC1 (stereo not drawn) [Example 33, 2-(4-((1H-pyrrolo[2,3-b]pyridin-4-yl)oxy)benzyl)-3-amino-N-cyclohexylpropanamide]
3 to 30 nM | 3 to 30 nM | NCC(Cc1ccc(Oc2ccnc3[nH]ccc23)cc1)C(=O)NC1CCOCC1 (stereo not drawn) [Example 34, 2-(4-((1H-pyrrolo[2,3-b]pyridin-4-yl)oxy)benzyl)-3-amino-N-(tetrahydro-2H-pyran-4-yl)propanamide]
3 to 30 nM | 3 to 30 nM | COCCCNC(=O)C(CN)Cc1ccc(Oc2ccnc3[nH]ccc23)cc1 (stereo not drawn) [Example 35, 2-(4-((1H-pyrrolo[2,3-b]pyridin-4-yl)oxy)benzyl)-3-amino-N-(3-methoxypropyl)propanamide]
< 3 nM | < 3 nM | CNCC(Cc1ccc(Oc2ccnc3[nH]cc(C)c23)cc1)C(=O)N1CCN(Cc2ccccc2)CC1 (stereo not drawn) [Example 36, 1-(4-benzylpiperazin-1-yl)-2-(4-((3-methyl-1H-pyrrolo[2,3-b]pyridin-4-yl)oxy)benzyl)-3-(methylamino)propan-1-one]
< 3 nM | < 3 nM | Cc1c[nH]c2nccc(Oc3ccc(CC(CN(C)C)C(=O)N4CCN(Cc5ccccc5)CC4)cc3)c12 (stereo not drawn) [Example 37, 1-(4-benzylpiperazin-1-yl)-3-(dimethylamino)-2-(4-((3-methyl-1H-pyrrolo[2,3-b]pyridin-4-yl)oxy)benzyl)propan-1-one]
> 30 nM | > 30 nM | Cc1c[nH]c2nccc(Oc3ccc(C4CC(=O)N(CCCN(C)C)CN4)cc3)c12 (stereo not drawn) [Example 38, 3-(3-(dimethylamino)propyl)-6-(4-((3-methyl-1H-pyrrolo[2,3-b]pyridin-4-yl)oxy)phenyl)tetrahydropyrimidin-4(1H)-one]
